Experiments:
[1] = system: MDA-MB-435; assay: cells; conditions: Homo sapiens
Description: Cytotoxicity against human MDA-MB-435 cells expressing p53 mutant assessed as growth inhibition by MTT assay

[2] = system: SW480; assay: cells; conditions: Homo sapiens
Description: Cytotoxicity against human SW480 cells expressing p53 mutant assessed as growth inhibition by MTT assay

[3] = system: SJSA-1; assay: cells; conditions: Homo sapiens
Description: Cytotoxicity against human SJSA1 cells expressing wild type p53 assessed as growth inhibition by MTT assay

[4] = system: RKO; assay: cells; conditions: Homo sapiens
Description: Cytotoxicity against human RKO cells expressing wild type p53 assessed as growth inhibition by MTT assay

[5] = system: HCT-116; assay: cells; conditions: Homo sapiens
Description: Cytotoxicity against human HCT116 cells expressing wild type p53 assessed as growth inhibition by MTT assay

[6] = Oral bioavailability in C57 mouse at 20 mg/kg; assay type: ADME, organism-based; conditions: in vivo
[7] = Apparent terminal half-life in C57 mouse at 5 mg/kg, iv; assay type: ADME, organism-based; set-up: dose 5 mg/kg, route intravenous; conditions: in vivo, read-out: betat1/2(app) (converted)
[8] = Total plasma clearance in C57 mouse at 5 mg/kg, iv; assay type: ADME, organism-based; set-up: dose 5 mg/kg, route intravenous
[9] = Cmax in C57 mouse at 20 mg/kg, po; assay type: ADME, organism-based; set-up: dose 20 mg/kg, route oral; conditions: in vivo
[10] = Clearance in human liver microsomes at […] by LC-MS/MS analysis; assay type: ADME, Microsome
[11] = Oral bioavailability in C57 mouse at 50 mg/kg; assay type: ADME, organism-based; conditions: in vivo
[12] = Cmax in C57 mouse at 50 mg/kg, po; assay type: ADME, organism-based; set-up: dose 50 mg/kg, route oral; conditions: in vivo
[13] = Oral bioavailability in nude mouse at 50 mg/kg; assay type: ADME, organism-based; conditions: in vivo
[14] = Clearance in nude mouse at 5 mg/kg, iv; assay type: ADME, organism-based; set-up: dose 5 mg/kg, route intravenous; conditions: in vivo
[15] = Half life in nude mouse at 5 mg/kg, iv; assay type: ADME, organism-based; set-up: dose 5 mg/kg, route intravenous; conditions: in vivo
[16] = Cmax in nude mouse at 50 mg/kg, po; assay type: ADME, organism-based; set-up: dose 50 mg/kg, route oral; conditions: in vivo
[17] = Oral bioavailability in C57 mouse at 25 mg/kg; assay type: ADME, organism-based; conditions: in vivo
[18] = Apparent terminal half-life in C57 mouse at 3.6 mg/kg, iv; assay type: ADME, organism-based; set-up: dose 3.6 mg/kg, route intravenous; conditions: in vivo, read-out: betat1/2(app) (converted)
[19] = Total plasma clearance in C57 mouse at 3.6 mg/kg, iv; assay type: ADME, organism-based; set-up: dose 3.6 mg/kg, route intravenous
[20] = Cmax in C57 mouse at 25 mg/kg, po; assay type: ADME, organism-based; set-up: dose 25 mg/kg, route oral; conditions: in vivo
[21] = AUC in nude mouse xenografted with human SJSA1 cells at 100 mg/kg, po; assay type: ADME, organism-based, SJSA-1; set-up: dose 100 mg/kg, route oral; conditions: in vivo
[22] = AUC in nude mouse xenografted with human SJSA1 cells at 50 mg/kg, po; assay type: ADME, organism-based, SJSA-1; set-up: dose 50 mg/kg, route oral; conditions: in vivo
[23] = system: SJSA-1; assay: Antitumor activity against human SJSA1 cells xenografted in nude mouse assessed as tumor growth inhibition at 100 mg/kg, po after 2 weeks relative to control; assay type: functional; conditions: SJSA-1, 336 h, read-out: TGI
[24] = system: SJSA-1; assay: animal or person; conditions: Mus musculus, SJSA-1, po, 336 h, read-out: TGI
Description: Antitumor activity against human SJSA1 cells xenografted in nude mouse assessed as tumor growth inhibition at 50 mg/kg, po after 2 weeks relative to control

[25] = AUC in nude mouse xenografted with human SJSA1 cells at 12.5 mg/kg, po; assay type: ADME, organism-based, SJSA-1; set-up: dose 12.5 mg/kg, route oral; conditions: in vivo
[26] = AUC in nude mouse xenografted with human SJSA1 cells at 25 mg/kg, po; assay type: ADME, organism-based, SJSA-1; set-up: dose 25 mg/kg, route oral; conditions: in vivo
[27] = system: SJSA-1; assay: Antitumor activity against human SJSA1 cells xenografted in nude mouse assessed as tumor growth inhibition at 25 mg/kg, po after 2 weeks relative to control; assay type: functional; conditions: SJSA-1, 336 h, read-out: TGI
[28] = system: SJSA-1; assay: Antitumor activity against human SJSA1 cells xenografted in nude mouse assessed as tumor growth inhibition at 12.5 mg/kg, po after 2 weeks relative to control; assay type: functional; conditions: SJSA-1, 336 h, read-out: TGI
[29] = system: SJSA-1; assay: Induction of apoptosis in human SJSA1 cells after 48 hrs by annexin V staining assay; assay type: functional, cell-based
[30] = system: SJSA-1; assay: Cell cycle arrest in human SJSA1 cells assessed as accumulation at G2/M phase after 24 hrs; assay type: functional, cell-based
[31] = target: E3 ubiquitin-protein ligase Mdm2 (Homo sapiens) (UniProt Q00987); assay: Inhibition of MDM2 in human SJSA1 cells assessed as induction of p53 stabilization after 20 hrs by Western blot analysis; assay type: cell-based; conditions: SJSA-1
Sequence of E3 ubiquitin-protein ligase Mdm2 (Homo sapiens) (Q00987 whole entry, looked up): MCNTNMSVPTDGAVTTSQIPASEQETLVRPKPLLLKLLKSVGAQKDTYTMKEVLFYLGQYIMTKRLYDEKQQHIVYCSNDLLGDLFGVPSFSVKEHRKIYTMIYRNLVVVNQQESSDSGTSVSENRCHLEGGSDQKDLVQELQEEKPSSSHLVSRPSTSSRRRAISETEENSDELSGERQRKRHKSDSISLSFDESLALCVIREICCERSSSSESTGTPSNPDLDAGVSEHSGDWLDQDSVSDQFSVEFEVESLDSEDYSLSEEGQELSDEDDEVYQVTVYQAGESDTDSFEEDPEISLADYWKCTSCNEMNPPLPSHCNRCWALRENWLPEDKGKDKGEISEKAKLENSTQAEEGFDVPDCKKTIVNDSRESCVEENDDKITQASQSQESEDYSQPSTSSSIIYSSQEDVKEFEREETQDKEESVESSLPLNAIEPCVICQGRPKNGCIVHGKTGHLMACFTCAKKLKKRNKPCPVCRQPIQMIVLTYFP

[32] = system: SJSA-1; assay: Cell cycle arrest in human SJSA1 cells assessed as accumulation at G1 phase after 24 hrs; assay type: functional, cell-based

Structure (SMILES) | IC50 [1] | IC50 [2] | IC50 [3] | IC50 [4] | IC50 [5] | half-life [7] | clearance [8] | CLhep predicted [10] | bioavailability [11] | Cmax [12] | other results
CC(C)(C)C[C@@H]1N[C@@H](C(=O)Nc2cccc(C(=O)O)c2)[C@H](c2cccc(Cl)c2F)[C@@]1(C#N)c1ccc(Cl)cc1F | 9700 nM | 15600 nM | 160 nM | 1540 nM | 410 nM |  |  |  |  |  | 
CC(C)(C)C[C@@H]1N[C@@H](C(=O)NCC[C@H](O)CO)[C@H](c2cccc(Cl)c2)[C@@]1(C#N)c1ccc(Cl)cc1 | 14400 nM | 30000 nM | 2100 nM | 3000 nM | 3400 nM | 0.44 h | 52.9 mL/min/kg | 18.7 mL/min/kg |  |  | bioavailability [6]: 6.2%; Cmax [9]: 500 ng/mL
COc1cc(NC(=O)[C@@H]2N[C@@H](CC(C)(C)C)[C@](C#N)(c3ccc(Cl)cc3F)[C@H]2c2cccc(Cl)c2F)ccc1C(=O)O | 6200 nM | 18400 nM | 30 nM | 140 nM | 40 nM | 4.8 h | 21.8 mL/min/kg | 6.6 mL/min/kg | 56% | 4100 ng/mL | 
CC(C)(C)C[C@@H]1N[C@@H](C(=O)Nc2ccc(C(=O)O)cc2)[C@H](c2cccc(Cl)c2F)[C@@]1(C#N)c1ccc(Cl)cc1F | 11100 nM | 13800 nM | 40 nM | 210 nM | 90 nM |  |  | 4.9 mL/min/kg |  |  | bioavailability [13]: 83%; clearance [14]: 13.8 mL/min/kg; half-life [15]: 4.34 h; Cmax [16]: 12000 ng/mL
CC(C)(C)C[C@@H]1N[C@@H](C(=O)Nc2ccn(CC(C)(C)O)n2)[C@H](c2cccc(Cl)c2F)[C@@]1(C#N)c1ccc(Cl)cc1F | 8560 nM | 6280 nM | 1320 nM | 1420 nM | 1420 nM |  |  | 4.2 mL/min/kg |  |  | bioavailability [17]: < 1%; half-life [18]: 1.48 h; clearance [19]: 19.8 mL/min/kg; Cmax [20]: 10 ng/mL
CC(C)(C)C[C@@H]1N[C@@H](C(=O)NCC[C@H](O)CO)[C@H](c2cccc(Cl)c2F)[C@@]1(C#N)c1ccc(Cl)cc1F |  | 16800 nM | 2100 nM |  |  | 0.52 h | 51.7 mL/min/kg | 19.9 mL/min/kg |  |  | bioavailability [6]: 3.6%; Cmax [9]: 300 ng/mL
CC(C)(C)C[C@@H]1N[C@@H](C(=O)Nc2ccc(C(=O)O)cn2)[C@H](c2cccc(Cl)c2F)[C@@]1(C#N)c1ccc(Cl)cc1F | 11200 nM | 13800 nM | 50 nM | 400 nM | 90 nM | 1.03 h | 29.7 mL/min/kg | 8.9 mL/min/kg | 53% | 3000 ng/mL | 
CC(C)(C)C[C@@H]1N[C@@H](C(=O)Nc2ccc(C(=O)O)c(F)c2)[C@H](c2cccc(Cl)c2F)[C@@]1(C#N)c1ccc(Cl)cc1F | 11300 nM | 15900 nM | 50 nM | 440 nM | 140 nM | 4.4 h | 18.4 mL/min/kg | 12.2 mL/min/kg | 49% | 3800 ng/mL | 
CCOc1cc(C(C)(C)C)ccc1C1=N[C@@](C)(c2ccc(Cl)cc2)[C@@](C)(c2ccc(Cl)cc2)N1C(=O)N1CCN(CCCS(C)(=O)=O)CC1 [RO-5045337] |  |  |  |  |  |  |  | 5.8 mL/min/kg |  |  | AUC [21]: 380 µg·h/mL; AUC [22]: 200 µg·h/mL; clearance [14]: 8.6 mL/min/kg; half-life [15]: 2.7 h; inhibition in vivo at 100 mg/kg [23]: > 100%; inhibition in vivo at 50 mg/kg [24]: 74%
COc1cc(C(=O)O)ccc1NC(=O)[C@@H]1N[C@@H](CC(C)(C)C)[C@](C#N)(c2ccc(Cl)cc2F)[C@H]1c1cccc(Cl)c1F [IDASANUTLIN] | 9100 nM | 13300 nM | 10 nM | 70 nM | 10 nM | 1.6 h | 10.3 mL/min/kg | 4.3 mL/min/kg | 80% | 9900 ng/mL | AUC [25]: 23 µg·h/mL; AUC [26]: 29 µg·h/mL; inhibition in vivo at 25 mg/kg [27]: > 100%; inhibition in vivo at 12.5 mg/kg [28]: 88%; Activity [29]: Dose-dependent effect; Activity [30]: Dose-dependent effect; inhibition [31]: Dose-dependent effect; Activity [32]: Dose-dependent effect
CC(C)(C)C[C@@H]1N[C@@H](C(=O)Nc2ccc(C(=O)O)cc2F)[C@H](c2cccc(Cl)c2F)[C@@]1(C#N)c1ccc(Cl)cc1F | 11700 nM | 13500 nM | 90 nM | 500 nM | 200 nM | 3.1 h | 11.5 mL/min/kg | 7 mL/min/kg | 100% | 18000 ng/mL | 
CC(C)(C)C[C@@H]1N[C@@H](C(=O)Nc2ccc3cc(C(=O)O)ccc3c2)[C@H](c2cccc(Cl)c2F)[C@@]1(C#N)c1ccc(Cl)cc1F | 9200 nM | 12300 nM | 40 nM | 280 nM | 140 nM | 1.41 h | 24.5 mL/min/kg | 9.4 mL/min/kg | 27% | 1700 ng/mL | 
